Results on two molecules are retold here after ChEMBL document CHEMBL2073833, “Biliary excretion of glycyrrhizin in rats: kinetic basis for multiplicity in bile canalicular transport of organic anions” (Pharm Res, 1996).

Conditions in all cases: in vivo
The target of data set [1] is T1, ATP-binding cassette sub-family C member 2 (Rattus norvegicus, UniProt Q63120). The data set is described as follows: TP_TRANSPORTER: inhibition of GR biliary excretion (70.8->23.5 % of dose, DBSP: 3 uM/min/kg iv infusion, GR: 10 mg/kg iv) in SD rat. It counts as functional, organism-based, Sprague-Dawley, Bile. Set-up: dose 10 mg/kg, route intravenous.
T1 sequence (Q63120 whole entry, the tested form may be a part): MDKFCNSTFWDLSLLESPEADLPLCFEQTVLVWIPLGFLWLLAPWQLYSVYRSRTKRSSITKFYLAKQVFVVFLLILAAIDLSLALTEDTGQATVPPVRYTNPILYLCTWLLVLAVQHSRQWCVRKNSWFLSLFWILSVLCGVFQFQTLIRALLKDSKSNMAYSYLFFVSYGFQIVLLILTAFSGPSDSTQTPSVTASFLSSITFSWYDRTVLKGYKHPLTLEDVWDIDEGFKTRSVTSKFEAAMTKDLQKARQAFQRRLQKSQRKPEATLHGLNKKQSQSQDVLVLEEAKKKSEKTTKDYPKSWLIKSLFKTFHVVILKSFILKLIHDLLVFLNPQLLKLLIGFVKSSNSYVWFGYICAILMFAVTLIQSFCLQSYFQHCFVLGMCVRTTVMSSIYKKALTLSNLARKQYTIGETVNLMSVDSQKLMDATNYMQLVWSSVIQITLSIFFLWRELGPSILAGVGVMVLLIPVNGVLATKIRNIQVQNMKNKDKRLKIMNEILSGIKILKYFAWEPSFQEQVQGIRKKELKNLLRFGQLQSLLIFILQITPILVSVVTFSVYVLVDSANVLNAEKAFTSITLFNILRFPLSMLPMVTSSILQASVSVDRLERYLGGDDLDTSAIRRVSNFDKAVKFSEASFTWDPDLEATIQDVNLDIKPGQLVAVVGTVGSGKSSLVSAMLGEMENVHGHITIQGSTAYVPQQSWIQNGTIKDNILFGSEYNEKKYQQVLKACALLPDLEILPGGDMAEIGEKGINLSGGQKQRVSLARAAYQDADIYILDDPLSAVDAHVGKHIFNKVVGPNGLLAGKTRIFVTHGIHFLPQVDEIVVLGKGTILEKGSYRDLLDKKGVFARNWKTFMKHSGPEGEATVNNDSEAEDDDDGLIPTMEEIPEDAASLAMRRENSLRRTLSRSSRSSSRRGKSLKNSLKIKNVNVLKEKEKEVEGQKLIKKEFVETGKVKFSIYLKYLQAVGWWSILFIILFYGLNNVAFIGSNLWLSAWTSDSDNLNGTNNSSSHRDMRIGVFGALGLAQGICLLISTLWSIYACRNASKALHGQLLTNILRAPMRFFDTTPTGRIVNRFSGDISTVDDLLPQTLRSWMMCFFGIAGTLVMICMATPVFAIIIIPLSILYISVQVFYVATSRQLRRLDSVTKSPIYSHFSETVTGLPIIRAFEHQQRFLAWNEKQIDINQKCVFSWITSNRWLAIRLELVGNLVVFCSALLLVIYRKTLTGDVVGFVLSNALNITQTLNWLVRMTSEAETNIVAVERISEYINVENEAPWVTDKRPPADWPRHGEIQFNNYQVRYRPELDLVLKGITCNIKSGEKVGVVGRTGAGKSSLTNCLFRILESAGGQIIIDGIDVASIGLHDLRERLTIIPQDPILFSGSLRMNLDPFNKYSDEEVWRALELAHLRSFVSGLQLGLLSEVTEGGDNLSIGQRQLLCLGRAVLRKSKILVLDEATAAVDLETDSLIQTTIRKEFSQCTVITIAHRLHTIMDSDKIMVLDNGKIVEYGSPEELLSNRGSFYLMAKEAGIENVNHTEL
The target in data set [2] is T1, ATP-binding cassette sub-family C member 2. Kind of data set: TP_TRANSPORTER: inhibition of GR biliary excretion (70.8->23.5 % of dose, DBSP: 3 uM/min/kg iv infusion, GR: 10 mg/kg iv) in EHBR rat. The class given is functional, organism-based, Bile. The arrangement: dose 10 mg/kg, route intravenous.
Data set [3] shares this target. The data set is described as follows: TP_TRANSPORTER: biliary excretion in EHBR rat. It counts as functional, organism-based, Bile.
For data set [4] the target is unchanged. Kind of data set: TP_TRANSPORTER: biliary excretion in SD rat. It counts as functional, organism-based, Sprague-Dawley, Bile.

Each structure is given as a SMILES string.

As to `O=C1OC(c2ccc(OS(=O)(=O)O)cc2)(c2ccc(OS(=O)(=O)O)cc2)c2c(Br)ccc(Br)c21` [DIBROMOSULFOPHTHALEIN], the Activity result in data set [1] and in data set [2] was “inhibitor [+]” each time.
Consider `CC1(C)[C@@H](O[C@H]2O[C@H](C(=O)O)[C@@H](O)[C@H](O)[C@H]2O[C@@H]2O[C@H](C(=O)O)[C@@H](O)[C@H](O)[C@H]2O)CC[C@]2(C)[C@H]3C(=O)C=C4[C@@H]5C[C@@](C)(C(=O)O)CC[C@]5(C)CC[C@@]4(C)[C@]3(C)CC[C@@H]12` [GLYCYRRHIZIN], for which the Activity entry in data set [3] and in data set [4] was “substrate [+]” in each case.
